Data taken from publication PMC12741935 (Alzheimer's & Dementia, 2025).
Where two headings read alike, the source gives them in different places.

Key:
[1] = Plasma and brain NVS-PAK1-1 concentrations in 5xFAD mice; format: in vivo; conditions: for concentration at 4 h: mouse, po, 100 mg/kg, 4 h after final dose
Method: Serial blood was collected from n = 3 per treatment group at 0.5, 1, 2, and 4 hours post dose; with terminal blood and brain collected at 4 hours post dose. A staggered cohort of n = 3 per treatment group were assigned to serial blood collections at 0.5, 1, 2, and 8 hours post dose with terminal blood and brain collected at 4 and 24 hours post dose. Informed by exposure data from the initial PK/PD study, a subsequent chronic PK/PD study was designed to evaluate twice daily treatment of 100 mg/kg (PO) in female and male 5xFAD mice compared to age‐ and sex‐matched vehicle‐treated 5xFAD and vehicle‐treated WT littermate controls (Table S2 in supporting information). Terminal blood and brain was collected at 4 hours after the final dose. […] All in vivo target engagement and PK/PD studies were conducted under blinded conditions for age, genotype, and treatment, and the blind was maintained until after analyses were conducted.
Drug concentrations were prepared immediately before dosing each day. The dose volume was delivered at 10 mL/kg based on each subject's daily weight collected just prior to the morning dose and administered via PO. For the chronic PD study, twice daily dosing (BID) was conducted between 7:00 and 9:00 am each morning and 3:00 to 5:00 pm each evening with the same day's formulation stored at 4°C between dosing intervals.
For serial blood sampling, 50 µL of blood was collected via the tail tip route into heparin‐coated glass capillary tubes (Drummond scientific # 1‐000‐7500‐C/5) in non‐anesthetized mice. For all terminal timepoints, tissue collection was conducted at 4 or 24 hours post dose for acute studies (Tables S1–S2) and 4 hours after the final dose administrated for chronic studies. Mice were anesthetized with isoflurane to the surgical plane of anesthesia. After decapitation, trunk blood was collected into heparin‐coated tubes for terminal PK analysis with the remaining trunk blood decanted into EDTA‐coated tubes for PD analysis. Blood was kept on ice until centrifugation (typically 20–60 minutes post collection), then centrifuged at 19745 g for 10 minutes at 4°C for PK samples and 20 minutes for PD samples (e.g., plasma Aβ40, Aβ42, neurofilament light chain [NfL]), followed by storage at −80°C until analysis. The brain was quickly removed from the skull, briefly rinsed in cold PBS, and divided sagittally at the midline into left and right hemispheres. The left hemisphere without cerebellum was quickly chopped and mixed into three equally aliquoted mixed parts then placed into three cold cryotubes. Cryotubes were immediately snap frozen on dry ice and stored at −80°C until analysis. The right hemisphere was maintained intact and immediately placed on dry ice and stored at −80°C until shipped to Stanford University for Golgi staining and morphological analyses.
For plasma samples, three volumes of acetonitrile containing internal standard was added to one volume of plasma, and centrifuged at 3000 g for 10 minute; then, the supernatant was removed and analyzed by LC‐MS/MS. Calibration standards and quality controls were prepared from a 1 mg/mL stock solution and subsequently a series of working solutions in methanol:water (1:1, v/v) that are spiked into blank plasma to yield a series of calibration standard samples in the range of 1 ng/mL to 10 µg/mL and QC samples at three concentration levels (low, middle, and high). All plasma samples were treated identically to the calibration standards and QC samples. For analysis of brain, one third of the left mixed‐chopped hemisphere was homogenized in three volumes of PBS buffer (pH 7.4; v/w = 3/1). Subsequently, three volumes of acetonitrile‐containing internal standard was added to one volume of each tissue homogenate, and the mixture was vortexed, centrifuged at 3000 g for 10 minutes, and supernatants were used for LC‐MS/MS.

[2] = system: 14 DIV hippocampal neurons; experiment: oAβ-induced dendrite degeneration (MAP2 dendrite length, number, complexity) in cultured hippocampal neurons; format: cell-based, mouse
Method: For in vitro study, all animal procedures were conducted in accordance with the National Institutes of Health Guide for the Care and Use of Laboratory Animals using protocols approved by the institutional animal care and use committee at Stanford University. Timed pregnant C57BL/6 mice (Strain code: 027) were purchased from Charles River Laboratories and delivered on embryonic day 15 (E15), after which E16 embryos were used for primary hippocampal cultures. Primary embryonic mouse hippocampal neuron cultures were plated on poly‐D‐lysine‐coated (10 µg/mL) glass cover slips at 40,000 to 50,000 cells per well in 12‐well plates (Corning Life Sciences). Cells were seeded in plating medium DMEM/F12 supplemented with 10% fetal bovine serum and 1 × penicillin/streptomycin (PS) for 2 hours. Medium was then changed to B‐27 Plus Neuronal Culture System (Invitrogen) supplemented with PS, and 2 mM glutamine.
Immunofluorescence was performed as described previously.[24] Briefly, cultured hippocampal neurons were fixed in 4% formaldehyde for 20 minutes, permeabilized for 6 minutes in 80% ice‐cold methanol, and incubated with primary antibodies at 4°C overnight. Primary antibodies used were rabbit polyclonal MAP2 antibody for labeling dendrites (1:1000, #8707, Cell Signaling) and mouse monoclonal drebrin antibody for labeling dendritic spines (1:300; Cat#ADI‐NBA‐110, Enzo). Secondary antibodies consisted of donkey antirabbit or antimouse conjugated with either FITC or Cy3 (1:400; Jackson ImmunoResearch Laboratories, Inc.).
The cultured hippocampal neurons were imaged using an oil‐based 63x objective on a Leica Stellaris 5 confocal microscope. The cell nucleus was stained with DAPI and imaged at a wavelength of 405 nm (blue channel), the dendrites stained by MAP2 were imaged at 488 nm wavelength (green channel), and the drebrin‐stained spines were imaged at a wavelength of 561 nm (red channel). Z‐stack images of neurons were acquired at a 1024 × 1024 resolution, a zoom factor of 1.0, and a z‐step size of 0.5 µm. The number of steps for every z‐stack picture of a neuron were determined by the size of the neuron in the z‐plane, to ensure that the entirety of a neuron is captured in the picture. The areas to be imaged were selected systematically, starting from the top‐left region to proceeding to the bottom‐right region of a coverslip. For imaging, preference was given to field of views containing isolated neurons versus clustered neurons.
For quantification of drebrin‐positive spines in vitro, the images were analyzed using Imaris 9.3 software. Each image consisted of one major neuron and the “filaments” option in Imaris was applied to manually trace along the dendrites of every neuron, by placing starting and seed points at the beginning and along the length of the dendrites, respectively. The largest dendrite diameter (i.e., Starting Point) was set at 9.00 µm threshold while the thinnest dendrite diameter (i.e., Seed Point) was set at 1.00 µm threshold. After manually tracing the dendrites, the spines along the dendrites were assessed using the automatic “spine detection” function in Imaris. The thinnest spine diameter was set at 0.80 µm threshold while the maximum spine length was set at 5.00 µm. The spine density (number of spines/dendrite length) was then calculated for each neuron. All image acquisition and quantification were performed in a blind manner. For in vitro quantification of dendrite degeneration, Neurolucida (MBF Biosciences) in the manual mode was used to measure the total dendritic length, numbers of dendrites, and dendritic complexity for each neuron.

**Q.** Which concentration at 4 h ([1]; female, 5xFAD, brain, aged 5xFAD females, 100 mg/kg BID PO 31 days, read-out: brain concentration) does the source give for `CC(C)NC(=O)N1CC[C@H](NC2=Nc3cc(F)ccc3N(CC(F)F)c3ccc(Cl)cc32)C1` [NVS‐PAK1‐1, (S)‐3‐([2‐chloro‐5‐(2,2‐difluoroethyl)‐8‐fluoro‐5H‐dibenzo[b,e][1,4]diazepin‐11‐yl]amino)‐N‐isopropylpyrrolidine‐1‐carboxamide] here?
**A.** 58.3 ± 26.1 ng/g

**Q.** And the concentration at 4 h ([1]; female, 5xFAD, brain, young 5xFAD females, 100 mg/kg BID PO 12 weeks, read-out: mean brain concentration)?
**A.** 44.9 ± 14.1 ng/g

**Q.** What about the concentration at 4 h ([1]; female, 5xFAD, plasma, aged 5xFAD females, 100 mg/kg BID PO 31 days, read-out: plasma concentration) of the same molecule?
**A.** 354 ± 138 ng/mL

**Q.** What about the concentration at 4 h ([1]; female, 5xFAD, plasma, young 5xFAD females, 100 mg/kg BID PO 12 weeks, read-out: average plasma concentration) of the same molecule?
**A.** 324 ± 104 ng/mL

**Q.** And the concentration at 4 h ([1]; male, 5xFAD, brain, aged 5xFAD males, 100 mg/kg BID PO 31 days, read-out: brain concentration)?
**A.** 49.1 ± 17.6 ng/g

**Q.** What about the concentration at 4 h ([1]; male, 5xFAD, brain, young 5xFAD males, 100 mg/kg BID PO 12 weeks, read-out: mean brain concentration) of the same molecule?
**A.** 98.5 ± 34.4 ng/g

**Q.** And the concentration at 4 h ([1]; male, 5xFAD, plasma, aged 5xFAD males, 100 mg/kg BID PO 31 days, read-out: plasma concentration)?
**A.** 140 ± 27.9 ng/mL

**Q.** What about the concentration at 4 h ([1]; male, 5xFAD, plasma, young 5xFAD males, 100 mg/kg BID PO 12 weeks, read-out: average plasma concentration) of the same molecule?
**A.** 309 ± 104 ng/mL

**Q.** And the “levels in brain or plasma” value ([1]; single PO dose 100 mg/kg, 24 hours post administration, 5xFAD)?
**A.** lack of detectable levels

**Q.** And the brain concentration ([1]; single PO dose 10 or 50 mg/kg, 24 hours post dose, aged 5xFAD)?
**A.** BLOQ

**Q.** And the dendritic complexity ([2]; oAβ 1 µM + 10 nM, 24 h, vs oAβ alone)?
**A.** preservation of complexity

**Q.** And the “dendrite number per neuron” value ([2]; oAβ 1 µM + inhibitor 24 h vs oAβ alone, NVS-PAK1-1 10 nM, AZ 1 nM, G 5 nM)?
**A.** significantly increased dendrite number per neuron

**Q.** And the “total dendrite length per neuron” value ([2]; oAβ 1 µM + inhibitor 24 h vs oAβ alone, NVS-PAK1-1 10 nM, PAK1-C 10 nM, AZ 1 nM, G 5 nM)?
**A.** preserved dendrite length
